For experiment [1], the target named is T1, lysozyme (Gallus gallus, UniProt P00698).
T1 construct: purchased Sigma (St. Louis, Mo.)
The experiment in a line: ESI-MS Taylor dispersion screen of a mixture of six sugars for noncovalent binding to lysozyme. The conditions noted are these: six sugars monitored simultaneously. The protocol: (§1) Based on the theoretical considerations described above, we will now describe details of an apparatus that allows the measurement of dispersion profiles by ESI-MS or APCI-MS. A schematic diagram of the apparatus is shown generally at 10 in FIG. 2. The measurements described below were carried out by using a 3.013 m long Teflon laminar flow tube (Upchurch, Oak Harbor, Wash.) shown as LFT or 12 in FIG. 2. The inner diameter (i.d.) of this LFT was determined gravimetrically to be 258.2 μm. In order to measure a diffusion coefficient, a sharp initial boundary must be created between the carrier solution and the following analyte solution at the entrance of the flow tube (Equation 3). This was accomplished by using a valve mechanism shown in FIG. 2 as a “sliding block mechanism (SBM)” 14 developed by the inventors. The laminar flow tube (LFT) 12 is inserted into a Teflon block machined to accommodate a PEEK connector and ferrule (Upchurch, Oak Harbor, Wash.) so that the flow tube 12 extends through to the end of the block. Initially, the entrance to the flow tube 12 is aligned with an opening in a steel block into which a piece of PEEK tubing 16 (508 μm ID, length ≈0.5 m) is fitted, using another PEEK connector and ferrule. This second piece of tubing 16 is used as the inlet tube, forming a leak-proof connection between the inlet tube and the flow tube at the boundary between the steel and Teflon blocks.
An analyte reservoir 18 (shown as a syringe in FIG. 2 which also acts as a pump) connected to the inlet tube 16 can be used to fill the inlet tube 16 with analyte solution, and to pump this analyte solution through the LFT 12. Initially, however, a carrier solution reservoir (not shown) is connected to tube 16 for filling the laminar flow tube 12 with carrier solution. The analyte solution and carrier solution reservoirs are never connected to the laminar flow tube 16 at the same time. Subsequently, the Teflon block containing the flow tube is moved sideways, such that the two tubes 12 and 16 are no longer aligned and the entrance to the flow tube 12 is closed off by the steel block. The inlet tube 16 can now be filled with analyte solution from pump 18 (syringe S1) without disturbing the carrier solution in the flow tube 12. Then the Teflon block is returned to its original position, aligning the two tubes (12 and 16) and creating a sharp boundary between the analyte solution in the inlet tube and the carrier solution in the LFT 12. The i.d. of the inlet tube 16 was chosen to be larger than that of the flow tube 12 to ensure that the boundary between the two solutions would cover the entire cross-sectional area of the flow tube 12, even if the sliding block were slightly misaligned. […]

For experiment [2], the target named is T2, apo-myoglobin (Equus caballus, UniProt P68082).
T2 construct: purchased Sigma (St. Louis, Mo.)
Kind of experiment: ESI-MS Taylor dispersion (diffusion) measurement of noncovalent heme-protein binding in myoglobin. To be noted: for noncovalent binding of heme to the protein: 24±1° C. The procedure: as §1
An analyte reservoir 18 (shown as a syringe in FIG. 2 which also acts as a pump) connected to the inlet tube 16 can be used to fill the inlet tube 16 with analyte solution, and to pump this analyte solution through the LFT 12. Initially, however, a carrier solution reservoir (not shown) is connected to tube 16 for filling the laminar flow tube 12 with carrier solution. The analyte solution and carrier solution reservoirs are never connected to the laminar flow tube 16 at the same time. Subsequently, the Teflon block containing the flow tube is moved sideways, such that the two tubes 12 and 16 are no longer aligned and the entrance to the flow tube 12 is closed off by the steel block. The inlet tube 16 can now be filled with analyte solution from pump 18 (syringe S1) without disturbing the carrier solution in the flow tube 12. Then the Teflon block is returned to its original position, aligning the two tubes (12 and 16) and creating a sharp boundary between the analyte solution in the inlet tube and the carrier solution in the LFT 12. The i.d. of the inlet tube 16 was chosen to be larger than that of the flow tube 12 to ensure that the boundary between the two solutions would cover the entire cross-sectional area of the flow tube 12, even if the sliding block were slightly misaligned. The use of a commercially available HPLC injection valve with a sample loop of suitable size may serve the same purpose as the described sliding block mechanism.
For the four examples given below, the analyte solution from syringe S1 is pumped through the laminar flow tube by using a Harvard syringe pump (South Nattick, Mass.). The outlet of the flow tube 12 is connected to two fused silica capillaries 26 and 28 (i.d. 100 μm, o.d. 165 μm, Polymicro Technologies, Phoenix, Ariz.) at a mixer 30 located at the end of tube 12. The first of these capillaries 26 has a length of 5 cm and is connected to the ESI source of the mass spectrometer 22. For studies on myoglobin, the second capillary 28 was used to supplement the analyte near the end of the laminar flow tube 12 with a methanol/acetic acid (90:10 v/v) mixture from syringe S2 just before it reached the ESI ion source. This “make-up” solvent was delivered at a flow rate of 5 μL/min, for a total flow rate of 10 μL/min at the ion source. The residence time of the analyte solution in the final 5 cm capillary was only about 2 s and can therefore be neglected for the analysis (the value of l/{overscore (v)} is 1929 s). […]

[3] abbreviates: absence vs presence of lysozyme.
The mark [4] stands for this setting: denaturing conditions (50% acetonitrile, pH 10).
The mark [5] stands for this setting: native-like solvent conditions (no organic cosolvents, pH 10).
[6] abbreviates: semi-denaturing conditions (30% acetonitrile, pH 10).

Each structure is given as a SMILES string. “Also recorded” adds a separate entry of the source.

T2 sequence (P68082 2-154 limits assumed): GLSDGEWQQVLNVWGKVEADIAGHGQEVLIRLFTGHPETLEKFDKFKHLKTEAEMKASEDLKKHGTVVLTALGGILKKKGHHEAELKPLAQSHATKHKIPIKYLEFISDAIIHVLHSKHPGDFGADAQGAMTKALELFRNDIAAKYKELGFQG
T1 sequence (P00698 19-147): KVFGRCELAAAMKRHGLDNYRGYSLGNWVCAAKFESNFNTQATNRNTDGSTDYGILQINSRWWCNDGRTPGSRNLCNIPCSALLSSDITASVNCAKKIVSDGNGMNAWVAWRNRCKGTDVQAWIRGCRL

Consider `CC(=O)N[C@H]1[C@H](O[C@H]2[C@H](O)[C@@H](NC(C)=O)C(O)O[C@@H]2CO)O[C@H](CO)[C@@H](O[C@@H]2O[C@H](CO)[C@@H](O)[C@H](O)[C@H]2NC(C)=O)[C@@H]1O` (stereo partly shown) [chitotriose], for which the “change in dispersion profile when the protein was added” value in experiment [1] (setting [3]) is recorded as “distinct change”. Also, the “change of apparent diffusion coefficient upon addition of the protein” value in experiment [1] (absence vs presence of lysozyme, average of about ten measurements) is “dramatic reduction; also recorded: significant change”. In experiment [1] (without and with lysozyme), the “noncovalent binding to lysozyme” value is given as “binds noncovalently to lysozyme”.
`C=CC1=C(C)c2cc3[n-]c(cc4[n-]c(cc5nc(cc1n2)C(C)=C5C=C)c(C)c4CCC(=O)O)c(CCC(=O)O)c3C.[Fe+2]` [heme]: the “fitted diffusion coefficient of heme compared with that of the protein in myoglobin solution” value in experiment [2] (setting [4]) is on record as “much larger diffusion coefficient”; in experiment [2] (setting [5]), “agree closely with each other”; in experiment [2] (setting [6]) it was “almost identical”. In addition, the “noncovalent binding of heme to the protein” value in experiment [2] (setting [4]) is recorded as “absent or extremely weak”; in experiment [2] (setting [5]), “noncovalently bound to the protein”; in experiment [2] (setting [6]), “still bound to each other”.
With `C[C@H](O)[C@H](O)[C@@H](O)[C@@H](O)C=O` [rhamnose], the “change in dispersion profile when the protein was added” value in experiment [1] (setting [3]) is listed as “virtually no change”.

Source of the values: US20030234356A1, “Method and apparatus for the detection of noncovalent interactions by mass spectrometry-based diffusion measurements” (priority 2002, published 2003).
